Results as given in patent US4822786A, “Cephalosporin compounds, and antibacterial agents” (Kaken Pharmaceutical Co., Ltd., priority 1986, dated 1989).
In brackets after ≈: the same amount, converted by molar mass. Read-outs that look alike come from different tables or passages of the source.

How the values were obtained:
Pseudomonas cepacia 23 = experiment: minimum inhibitory concentration, agar plate dilution method; format: cell-based
[1] = system: Serratia marcescens No. 16-2; experiment: as above; format: cell-based
[2] = system: Staphylococus aureus FDA 209-P JC-1; experiment: as above; format: cell-based; conditions: Staphylococcus aureus, FDA209; S. aureus FDA 209-P JC-1; inoculated amount of cells 10^6 CFU/ml; Muller-Hinton agar; read-out: minimum inhibitory concentration (M.I.C.)
[3] = system: Staphyloccocus aureus Smith; experiment: infection-preventive effects in mice (intraperitoneal infection, survival); format: in vivo, JCL:JCR type male mice; conditions: Staphylococcus aureus, ip, 168 h; S. aureus Smith, 7.7 × 10^7 cells/mouse i.p., no mucin; compound hypodermically 1 hour after infection; 7-day survival
[4] = system: Pseudomonas aeruginosa Y-1; experiment: as above; format: in vivo, JCL:JCR type male mice; conditions: Y1, ip, 168 h
[5] = system: Enterobacter cloacae Nek 39; experiment: minimum inhibitory concentration, agar plate dilution method; format: cell-based
Escherichia coli ML 4707 [6] = experiment: as above; format: cell-based; conditions: ML4707, E. coli ML 4707, inoculated amount of cells 10^6 CFU/ml, Muller-Hinton agar, read-out: minimum inhibitory concentration (M.I.C.)
Proteus vulgaris No. 33 = experiment: as above; format: cell-based
[7] = system: Pseudomonas aeruginosa Y-1; experiment: as above; format: cell-based
[8] = system: Acinetobacter calcoaceticus No. 4; experiment: as above; format: cell-based
Escherichia coli ML 4707 [9] = experiment: infection-preventive effects in mice (intraperitoneal infection, survival); format: in vivo, JCL:JCR type male mice; conditions: ML4707, ip, 168 h, E. coli ML 4707, 1.1 × 10^6 cells/mouse i.p., no mucin, compound hypodermically 1 hour after infection, 7-day survival
[10] = system: Pseudomonas aeruginosa K-13; experiment: as above; format: in vivo, JCL:JCR type male mice; conditions: K13, ip, 168 h
[11] = system: Klebsiella pneumoniae No. 42; experiment: minimum inhibitory concentration, agar plate dilution method; format: cell-based
[12] = system: Pseudomonas aeruginosa K-13; experiment: as above; format: cell-based
[13] = Burkholderia cepacia, P. cepacia 23, inoculated amount of cells 10^6 CFU/ml, Muller-Hinton agar, read-out: minimum inhibitory concentration (M.I.C.)
[14] = NO.162, S. marcescens No. 16-2, inoculated amount of cells 10^6 CFU/ml, Muller-Hinton agar, read-out: minimum inhibitory concentration (M.I.C.)
[15] = P. aeruginosa Y-1, 4.0 × 10^5 cells/mouse i.p., with mucin, compound hypodermically 1 hour after infection, 7-day survival, read-out: ED50
[16] = NEK39, E. cloacae Nek 39, inoculated amount of cells 10^6 CFU/ml, Muller-Hinton agar, read-out: minimum inhibitory concentration (M.I.C.)
[17] = Y1, P. aeruginosa Y-1, inoculated amount of cells 10^6 CFU/ml, Muller-Hinton agar, read-out: minimum inhibitory concentration (M.I.C.)
[18] = A. calcoaceticus No. 4, inoculated amount of cells 10^6 CFU/ml, Muller-Hinton agar, read-out: minimum inhibitory concentration (M.I.C.)
[19] = P. aeruginosa K-13, 3.0 × 10^4 cells/mouse i.p., with mucin, compound hypodermically 1 hour after infection, 7-day survival, read-out: ED50
[20] = K. pneumoniae No. 42, inoculated amount of cells 10^6 CFU/ml, Muller-Hinton agar, read-out: minimum inhibitory concentration (M.I.C.)
[21] = K13, P. aeruginosa K-13, inoculated amount of cells 10^6 CFU/ml, Muller-Hinton agar, read-out: minimum inhibitory concentration (M.I.C.)
[22] = P. vulgaris No. 33, inoculated amount of cells 10^6 CFU/ml, Muller-Hinton agar, read-out: minimum inhibitory concentration (M.I.C.)

MIC [2] [µg/mL] | MIC (Escherichia coli ML 4707 [6]) [µg/mL] | MIC (Pseudomonas cepacia 23; [13]) [µg/mL] | MIC [1, 14] [µg/mL] | MIC [5, 16] [µg/mL] | MIC [7, 17] [µg/mL] | MIC [8, 18] [µg/mL] | MIC [11, 20] [µg/mL] | MIC [12, 21] [µg/mL] | MIC (Proteus vulgaris No. 33; [22]) [µg/mL] | SMILES | ED50 [3] [mg/kg] | ED50 (Escherichia coli ML 4707 [9]) [mg/kg] | ED50 [4, 15] [mg/kg] | ED50 [10, 19] [mg/kg] | also measured
3.13 (≈ 5.88 µM) | 50 (≈ 93.9 µM) | > 100 | > 100 | > 100 | 1.56 (≈ 2.93 µM) | 50 (≈ 93.9 µM) | > 100 | 3.13 (≈ 5.88 µM) | – | NC(=O)c1cc[n+](CC2=C(C(=O)O)N3C(=O)[C@@H](NC(=O)[C@@H](c4ccccc4)S(=O)(=O)[O-])[C@H]3SC2)cc1 [CFS, cefsulodin, reference compound] | – | > 100 | 13 | 39 | –
50 (≈ 78.5 µM) | ≤ 0.025 | 0.05 (≈ 0.0785 µM) | 0.39 (≈ 0.613 µM) | 0.39 (≈ 0.613 µM) | 0.1 (≈ 0.157 µM) | 1.56 (≈ 2.45 µM) | ≤ 0.025 | 0.1 (≈ 0.157 µM) | ≤ 0.025 | Cn1nnnc1SCC1=C(C(=O)O)N2C(=O)[C@@H](NC(=O)/C(=N\OCc3cc(=O)c(O)cn3O)c3csc(N)n3)[C@H]2SC1 [Example 5, (6R, 7R)-7-[(Z)-2-(2-aminothiazol-4-yl)-2-(1,5-dihydroxy-4-pyridon-2-ylmethoxyimino)acetamido]-3(1-methyl-1H-tetrazol-5-ylthiomethyl)-3-cephem-4carboxylic acid] | – | 0.12 | – | 18.9 | –
12.5 (≈ 18.2 µM) | 0.05 (≈ 0.0729 µM) | 0.39 (≈ 0.569 µM) | 1.56 (≈ 2.27 µM) | 0.2 (≈ 0.292 µM) | 0.78 (≈ 1.14 µM) | 6.25 (≈ 9.11 µM) | 0.1 (≈ 0.146 µM) | 1.56 (≈ 2.27 µM) | 0.2 (≈ 0.292 µM) | C[n+]1ccc(SCC2=C(C(=O)[O-])N3C(=O)[C@@H](NC(=O)/C(=N\OCc4cc(=O)c(O)cn4O)c4csc(N)n4)[C@H]3SC2)c2c1CCC2 [Example 19, (6R, 7R)-7-[(Z)-2-(2-aminothiazol-4-yl)-2-(1,5-dihydroxy-4-pyridon-2-ylmethoxyimino)acetamido]-3-(2,3-cyclopenteno-1-methylpyridinium-4-ylthiomethy)-3-cephem-4-carboxylate] | – | 0.077 | 7.8 | 9.6 | –

Further lines, the molecule ahead of its results:

SMILES | MIC [2] [µg/mL] | MIC (Escherichia coli ML 4707 [6]) [µg/mL] | MIC (Pseudomonas cepacia 23; [13]) [µg/mL] | MIC [1, 14] [µg/mL] | MIC [5, 16] [µg/mL] | MIC [7, 17] [µg/mL] | MIC [8, 18] [µg/mL] | MIC [11, 20] [µg/mL] | MIC [12, 21] [µg/mL] | MIC (Proteus vulgaris No. 33; [22]) [µg/mL] | ED50 [3] [mg/kg] | ED50 (Escherichia coli ML 4707 [9]) [mg/kg] | ED50 [4, 15] [mg/kg] | ED50 [10, 19] [mg/kg] | also measured
CC(C)(O/N=C(\C(=O)N[C@@H]1C(=O)N2C(C(=O)[O-])=C(C[n+]3ccccc3)CS[C@H]12)c1csc(N)n1)C(=O)O [CAZ, ceftazidime, reference compound] | 12.5 (≈ 22.9 µM) | 0.2 (≈ 0.366 µM) | – | – | – | – | – | – | – | – | 17 | 0.73 | – | – | MIC (Pseudomonas cepacia 23; Burkholderia cepacia, 23, read-out: minimum inhibitory concentration (M.I.C.)): 1.56 µg/mL (≈ 2.85 µM); MIC ([1]; NO.162, read-out: minimum inhibitory concentration (M.I.C.)): 1.56 µg/mL (≈ 2.85 µM); ED50 [4]: 16 mg/kg; MIC ([5]; NEK39, read-out: minimum inhibitory concentration (M.I.C.)): 1.56 µg/mL (≈ 2.85 µM); MIC (Proteus vulgaris No. 33; NO.33, read-out: minimum inhibitory concentration (M.I.C.)): 0.1 µg/mL (≈ 0.183 µM); MIC ([7]; Y1, read-out: minimum inhibitory concentration (M.I.C.)): 1.56 µg/mL (≈ 2.85 µM); MIC ([8]; NO.4, read-out: minimum inhibitory concentration (M.I.C.)): 6.25 µg/mL (≈ 11.4 µM); ED50 [10]: 31 mg/kg; MIC ([11]; NO.42, read-out: minimum inhibitory concentration (M.I.C.)): 0.39 µg/mL (≈ 0.714 µM); MIC ([12]; K13, read-out: minimum inhibitory concentration (M.I.C.)): 3.13 µg/mL (≈ 5.73 µM)
CO/N=C(\C(=O)N[C@@H]1C(=O)N2C(C(=O)O)=C(COC(C)=O)CS[C@H]12)c1csc(N)n1 [CTX, cefotaxime, reference compound] | 3.13 (≈ 6.87 µM) | ≤ 0.025 | 3.13 (≈ 6.87 µM) | 6.25 (≈ 13.7 µM) | 3.13 (≈ 6.87 µM) | 12.5 (≈ 27.4 µM) | 25 (≈ 54.9 µM) | 0.1 (≈ 0.22 µM) | 25 (≈ 54.9 µM) | 0.05 (≈ 0.11 µM) | 3.1 | 0.095 | > 200 | > 100 | –
Cc1cc(SCC2=C(C(=O)O)N3C(=O)[C@@H](NC(=O)/C(=N\OCc4cc(=O)c(O)cn4O)c4csc(N)n4)[C@H]3SC2)n2nc(C(=O)O)nc2n1 [Example 4, (6R, 7R)-7-[(Z)-2-(2-aminothiazol-4-yl)-2-(1,5-dihydroxy-4-pyridon-2-ylmethoxyimino)acetamido]-3(2-carboxy-5-methyl-s-triazolo[1,5-a]pyrimidin-7-ylthiomethyl)-3-cephem-4-carboxylic acid] | 12.5 (≈ 17.1 µM) | 0.1 (≈ 0.137 µM) | 0.2 (≈ 0.274 µM) | 0.39 (≈ 0.534 µM) | 0.39 (≈ 0.534 µM) | 0.39 (≈ 0.534 µM) | 12.5 (≈ 17.1 µM) | 0.2 (≈ 0.274 µM) | 0.2 (≈ 0.274 µM) | 0.1 (≈ 0.137 µM) | 8.7 | 0.16 | 4 | 12 | –
Nc1nc(/C(=N/OCc2cc(=O)c(O)cn2O)C(=O)N[C@@H]2C(=O)N3C(C(=O)O)=C(CSc4nnnn4CCO)CS[C@H]23)cs1 [Example 6] | 25 (≈ 37.5 µM) | ≤ 0.025 | 0.1 (≈ 0.15 µM) | 0.39 (≈ 0.585 µM) | 0.78 (≈ 1.17 µM) | 0.1 (≈ 0.15 µM) | 3.13 (≈ 4.69 µM) | 0.05 (≈ 0.075 µM) | 0.2 (≈ 0.3 µM) | 0.05 (≈ 0.075 µM) | 42 | 0.13 | 1.4 | 4.6 | –
C[n+]1ccc(SCC2=C(C(=O)[O-])N3C(=O)[C@@H](NC(=O)/C(=N\OCc4cc(=O)c(O)cn4O)c4csc(N)n4)[C@H]3SC2)cc1 [Example 18, (6R, 7R)-7-[(Z)-2-(2-aminothiazol-4-yl)-2-(1,5-dihydroxy-4-pyridon-2-ylmethoxyimino)acetamido]-3-(1-methylpyridinium-4-ylthiomethyl)-3-cephem-4-carboxylat] | 6.25 (≈ 9.68 µM) | ≤ 0.025 | 0.2 (≈ 0.31 µM) | 0.78 (≈ 1.21 µM) | 0.39 (≈ 0.604 µM) | 0.2 (≈ 0.31 µM) | 3.13 (≈ 4.85 µM) | 0.05 (≈ 0.0774 µM) | 0.78 (≈ 1.21 µM) | 0.1 (≈ 0.155 µM) | 2.9 | 0.034 | 2 | 13 | –
